Test results reported in ChEMBL document CHEMBL4145504, “Jatrophane diterpenoids from Euphorbia sororia as potent modulators against P-glycoprotein-based multidrug resistance” (Eur J Med Chem, 2018).
pEC50, pIC50, pKi: −log10 of the molar value. Active and inactive are the calls of the source. The rule behind the calls is not given here.

Columns and labels:
[1] = Cytotoxicity against human MCF7 cells assessed as cell survival at 10 uM after 48 hrs by MTT assay relative to control; assay type: cell-based; settings: read-out: Survival
[2] = tested on: MCF7; test: Cytotoxicity against human MCF7 cells after 48 hrs by MTT assay; assay type: cell-based; settings: MCF7, 48 h
[3] = tested on: NCI/ADR-RES; test: Cytotoxicity against human MCF7/ADR cells after 48 hrs by MTT assay; assay type: cell-based
[4] = Cytotoxicity against human MCF7/ADR cells assessed as cell survival at 10 uM after 48 hrs by MTT assay relative to control; assay type: cell-based; settings: MCF7/ADR cells (NCI/ADR-RES), read-out: Survival
[5] = organism: Homo sapiens; test: Inhibition of P-gp in human MCF7/ADR cells assessed as potentiation of doxorubicin-induced cytotoxicity at 10 uM after 48 hrs by MTT assay relative to control; assay type: cell-based
[6] = Inhibition of P-gp in human MCF7/ADR cells assessed as potentiation of doxorubicin-induced cytotoxicity after 48 hrs by MTT assay; assay type: cell-based; settings: NCI/ADR-RES
[7] = tested on: HEK293; test: Cytotoxicity against HEK293 cells after 48 hrs by MTT assay; assay type: cell-based; settings: Homo sapiens, HEK293, 48 h
[8] = tested on: P-gp; test: Therapeutic index, ratio of IC50 for HEK293 cells to EC50 for inhibition of P-gp in human MCF7/ADR cells assessed as potentiation of doxorubicin-induced cytotoxicity; assay type: toxicity, cell-based; settings: HEK293 cells (IC50) and MCF7/ADR cells (EC50)
[9] = organism: Homo sapiens; test: Inhibition of P-gp in human MCF7/ADR cells assessed as increase in doxorubicin accumulation in cells after 150 mins by fluorescence assay; assay type: cell-based
[10] = Competitive inhibition of P-gp in human MCF7/ADR cells after 150 mins in presence of doxorubicin by Lineweaver-Burk plot analysis; assay type: cell-based
[11] = Competitive inhibition of P-gp in human MCF7/ADR cells after 150 mins in presence of doxorubicin by Dixon plot analysis; assay type: cell-based
[12] = organism: Homo sapiens; test: Inhibition of P-gp in human MCF7/ADR cells assessed as concentration required to restore doxorubicin accumulation in cells after 150 mins by fluorescence assay relative to MCF7 cells; assay type: cell-based
[13] = organism: Homo sapiens; test: Inhibition of P-gp in human MCF7/ADR cells assessed as potentiation of docetaxel-induced cytotoxicity at 10 uM after 48 hrs by MTT assay relative to control; assay type: cell-based
[14] = organism: Homo sapiens; test: Inhibition of P-gp in human MCF7/ADR cells assessed as potentiation of vincristine-induced cytotoxicity at 10 uM after 48 hrs by MTT assay relative to control; assay type: cell-based
[15] = organism: Homo sapiens; test: Inhibition of P-gp mediated efflux in human MCF7/ADR cells after 4 hrs by Rh123 dye-based flow cytometric method; assay type: cell-based
[16] = tested on: NCI/ADR-RES; test: Inhibition of P-gp expression in human MCF7/ADR cells at 5 to 10 uM after 48 hrs by Western blot analysis; assay type: functional, cell-based
[17] = organism: Homo sapiens; test: Stimulation of human Pgp ATPase activity expressed in cell membranes at 50 uM after 1 hr by P-gp Glo assay relative to control
[18] = organism: Homo sapiens; test: Stimulation of human Pgp ATPase activity expressed in cell membranes at 2.5 uM after 1 hr by P-gp Glo assay relative to control
[19] = organism: Homo sapiens; test: Inhibition of P-gp in human MCF7/ADR cells assessed as potentiation of doxorubicin-induced cytotoxicity at 1 uM preincubated with cells followed by compound washout and subsequent incubation for 6 hrs prior to addition of doxorubicin and measured after 48 hrs by MTT assay relative to control; assay type: cell-based
[20] = organism: Homo sapiens; test: Inhibition of P-gp in human MCF7/ADR cells assessed as increase in doxorubicin accumulation in cells up to 20 uM after 150 mins by fluorescence assay relative to control; assay type: cell-based

SMILES | viability at 48 h, 10 µM [1] [%] | pIC50 [2] | pIC50 [3] | viability at 48 h, 10 µM [4] [%] | fold change (FC) [5] | pEC50 [6] | pIC50 [7] | selectivity ratio [8] | inhibition [9] | pKi [10] | pKi [11] | Activity [12] [µM] | fold change (FC) [13] | fold change (FC) [14] | inhibition [15] | inhibition [16] | fold change (FC) [17] | fold change (FC) [18] | fold change (FC) [19] | fold change (FC) [20]
C=C1[C@H](OC(=O)C(C)C)[C@@H](OC(C)=O)[C@@H](OC(C)=O)C(C)(C)/C=C/[C@H](C)[C@H](OC(=O)c2ccccc2)[C@@]2(O)C[C@@](C)(OC(C)=O)[C@H](OC(C)=O)[C@@H]2[C@H]1OC(=O)C(C)C | 94.3 | < 4.00 | < 4.00 | 94.5 | 10 | – | – | – | – | – | – | – | – | – | – | – | – | – | – | –
C=C1[C@H](OC(=O)C(C)C)[C@@H](OC(C)=O)[C@@H](OC(C)=O)C(C)(C)/C=C/[C@H](C)[C@H](O)[C@@]2(O)C[C@@](C)(OC(=O)C(C)C)[C@H](OC(C)=O)[C@@H]2[C@H]1OC(=O)c1ccccc1 | 88 | < 4.00 | < 4.00 | 91.1 | 20.6 | 6.90 | 4.20 | 512 | – | – | – | – | – | – | – | – | – | – | – | –
C=C1CCC(=O)C(C)(C)/C=C/[C@H](C)C(=O)[C@@]2(OC(C)=O)C[C@H](C)[C@H](O)[C@@H]2[C@H]1OC(=O)c1ccccc1 | 95.6 | 4.15 | 4.04 | 90.4 | 3.52 | – | – | – | – | – | – | – | – | – | – | – | – | – | – | –
C=C1[C@H](OC(=O)C(C)C)[C@@H](OC(C)=O)[C@@H](OC(C)=O)C(C)(C)/C=C/[C@H](C)C(=O)[C@@]2(O)C[C@@](C)(OC(C)=O)[C@H](OC(C)=O)[C@@H]2[C@H]1OC(=O)c1ccccc1 | 92.4 | < 4.00 | < 4.00 | 90.3 | 9.29 | – | – | – | – | – | – | – | – | – | – | – | – | – | – | –
C=C1[C@H](OC(=O)C(C)C)[C@@H](OC(C)=O)[C@@H](OC(C)=O)C(C)(C)/C=C/[C@H](C)[C@H](OC(=O)c2ccccc2)[C@@]2(O)C[C@@](C)(OC(C)=O)[C@H](OC(C)=O)[C@@H]2[C@H]1OC(=O)CC | 93.3 | < 4.00 | < 4.00 | 92.8 | 12.5 | 6.75 | 4.17 | 378 | – | – | – | – | – | – | – | – | – | – | – | –
COc1ccc(CCN(C)CCCC(C#N)(c2ccc(OC)c(OC)c2)C(C)C)cc1OC (stereo not drawn) | 83.4 | 4.31 | – | 90.2 | – | – | – | – | Dose-dependent effect | 5.54 | 5.53 | 40 | – | – | – | – | – | – | – | –
C=C1[C@H](OC(=O)CC)[C@@H](OC(C)=O)[C@@H](OC(C)=O)C(C)(C)/C=C/[C@H](C)[C@H](OC(=O)c2ccccc2)[C@@]2(O)C[C@@](C)(OC(C)=O)[C@H](OC(C)=O)[C@@H]2[C@H]1OC(=O)C(C)C | 83.3 | < 4.00 | < 4.00 | 92.5 | 13.5 | 6.87 | 4.23 | 438 | – | – | – | – | – | – | – | – | – | – | – | –
C=C1[C@H](OC(=O)C(C)C)[C@@H](OC(C)=O)[C@@H](OC(C)=O)C(C)(C)/C=C/[C@H](C)[C@H](OC(C)=O)[C@@]2(O)C[C@@](C)(OC(C)=O)[C@H](OC(C)=O)[C@@H]2[C@H]1OC(=O)c1ccccc1 | 94.6 | < 4.00 | < 4.00 | > 100 | 10.2 | – | – | – | – | – | – | – | – | – | – | – | – | – | – | –
CC(=O)O[C@H]1[C@@H](OC(C)=O)C(C)(C)/C=C/[C@H](C)[C@H](OC(C)=O)[C@@]2(O)C[C@@](C)(OC(C)=O)[C@H](O)[C@@H]2[C@H]2OC(=O)CC[C@@]2(OC(=O)c2ccccc2)[C@@H]1OC(=O)C(C)C | 98.5 | 4.19 | < 4.00 | > 100 | 13 | 6.90 | 4.37 | 346 | – | – | – | – | – | – | – | – | – | – | – | –
C=C1[C@H](OC(=O)C(C)C)[C@@H](OC(C)=O)[C@@H](OC(C)=O)C(C)(C)/C=C/[C@H](C)[C@H](OC(=O)c2ccccc2)[C@@]2(O)C[C@@](C)(OC(C)=O)[C@H](OC(C)=O)[C@@H]2[C@H]1OC(=O)c1ccccc1 | 93.2 | 4.27 | < 4.00 | 97.7 | 20.9 | 7.03 | 4.21 | 661 | – | – | – | – | – | – | – | – | – | – | – | –
C=C1[C@H](OC(=O)C(C)C)[C@@H](OC(C)=O)[C@@H](OC(C)=O)C(C)(C)/C=C/[C@H](C)[C@H](OC(=O)c2ccccc2)[C@@]2(O)C[C@@](C)(OC(C)=O)[C@H](OC(C)=O)[C@@H]2[C@H]1OC(=O)C(C)CC (stereo partly drawn) | 91.4 | < 4.00 | < 4.00 | 91.8 | 36.8 | 7.03 | 4.01 | 1060 | Dose-dependent effect | 6.31 | 6.30 | 10 | 3.42 | 2.17 | Dose-dependent effect | inactive | 2.22 | 1.34 | 1.43 | 2.15
C=C1[C@H](OC(C)=O)[C@H]2[C@@H](OC(C)=O)[C@@H](C)C[C@]2(OC(C)=O)C(=O)[C@@H](C)/C=C/C(C)(C)C(=O)[C@H](OC(C)=O)[C@H]1OC(=O)CC | 85.6 | < 4.00 | < 4.00 | 94.8 | 6.65 | – | – | – | – | – | – | – | – | – | – | – | – | – | – | –
CC(=O)O[C@H]1[C@@H](OC(C)=O)C(C)(C)/C=C/[C@H](C)[C@@H](OC(C)=O)[C@@]2(O)C[C@@](C)(OC(C)=O)[C@@H]3OC(=O)CC[C@@](O)([C@@H]1OC(=O)C(C)C)[C@H](OC(=O)c1ccccc1)[C@@H]32 | 93.2 | 4.08 | 4.03 | > 100 | 17.1 | 6.84 | 4.27 | 368 | – | – | – | – | – | – | – | – | – | – | – | –
C=C1[C@H](OC(C)=O)[C@H]2[C@@H](OC(C)=O)[C@@H](C)C[C@]2(OC(C)=O)C(=O)[C@@H](C)/C=C/C(C)(C)C(=O)[C@H](OC(C)=O)[C@H]1OC(=O)C(C)C | 91.9 | < 4.00 | < 4.00 | 96.2 | 9.99 | – | – | – | – | – | – | – | – | – | – | – | – | – | – | –
CC(=O)O[C@H]1[C@@H](OC(C)=O)C(C)(C)[C@@H]2O[C@H]2[C@H](C)[C@H](OC(C)=O)[C@]2(O)[C@H]3[C@@H](OC(=O)c4ccccc4)[C@@](O)(CCC(=O)O[C@H]3[C@](C)(OC(C)=O)[C@H]2OC(C)=O)[C@@H]1OC(C)=O | 94.9 | < 4.00 | < 4.00 | 93 | 0.69 | – | – | – | – | – | – | – | – | – | – | – | – | – | – | –
C=C1[C@@H](OC(C)=O)[C@@H]2[C@H](OC(=O)c3ccccc3)[C@](C)(OC(=O)C(C)C)C[C@]2(OC(C)=O)C(=O)[C@H](C)/C=C/C(C)(C)[C@H](OC(C)=O)[C@H](OC(C)=O)[C@H]1OC(=O)C(C)C | 92.3 | < 4.00 | < 4.00 | 91.2 | 11.2 | 6.71 | 4.41 | 196 | – | – | – | – | – | – | – | – | – | – | – | –
